Measured values: publication PMC5479826, “Determination of Crucial Immunogenic Epitopes in Major Peanut Allergy Protein, Ara h2, via Novel Nanoallergen Platform” (Scientific Reports, 2017)

Test system: patient sera IgEs
Experiment: ELISA binding assay with patient sera
Design: species or system human
Method: A high binding 96 well plate was incubated with anti-Human IgE in Carbonate-Bicarbonate buffer (Sigma) at a concentration of 3 nM for 16 hours at 4 °C. Plate was washed with washing buffer (PBS with 0.5% tween 20) and then blocked with blocking buffer (5% BSA in PBS with 0.1% tween 20) for 1 hr at room temperature. Plate was washed with automatic plate washer (AquaMax 2000), then varying concentrations of either Ara h2-Biotin (Indoors Biotechnologies) or FITC-peptide 2 conjugate in blocking buffer for 1 hour. Plate was washed again and then either streptavidin-HRP (1:5 000 dilution) or anti-FITC HRP IgG (1:5000 dilution) was added in blocking buffer. After another washing step, Amplex Red substrate was added (Invitrogen) and plate fluorescence was read at 5 minute intervals according to manufacturer’s instructions.

In the case of ERDPYSP^OHSQDPYSP^OHS [Epitope 2], the EC50 (Fig. S-2, patient serum 1 on anti-IgE coated plate, Ara h 2-Biotin or FITC-tagged epitope 2 peptide) is reported as 465 ± 200 nM and the “Binding to patient sera IgEs in ELISA (detectability)” value (serum 1, result in words) is reported as “detectable binding”.
